# Values quoted from earlier work, collected in patent publication US9827281B2, “Medication dispensing system” (priority 2015, dated 2017).
# Key:
# [1] = target: T1, androgen receptor in the prostate gland (Homo sapiens, UniProt P10275)
# T1 construct: host or cells: prostate gland
# T1 sequence (P10275 1-920): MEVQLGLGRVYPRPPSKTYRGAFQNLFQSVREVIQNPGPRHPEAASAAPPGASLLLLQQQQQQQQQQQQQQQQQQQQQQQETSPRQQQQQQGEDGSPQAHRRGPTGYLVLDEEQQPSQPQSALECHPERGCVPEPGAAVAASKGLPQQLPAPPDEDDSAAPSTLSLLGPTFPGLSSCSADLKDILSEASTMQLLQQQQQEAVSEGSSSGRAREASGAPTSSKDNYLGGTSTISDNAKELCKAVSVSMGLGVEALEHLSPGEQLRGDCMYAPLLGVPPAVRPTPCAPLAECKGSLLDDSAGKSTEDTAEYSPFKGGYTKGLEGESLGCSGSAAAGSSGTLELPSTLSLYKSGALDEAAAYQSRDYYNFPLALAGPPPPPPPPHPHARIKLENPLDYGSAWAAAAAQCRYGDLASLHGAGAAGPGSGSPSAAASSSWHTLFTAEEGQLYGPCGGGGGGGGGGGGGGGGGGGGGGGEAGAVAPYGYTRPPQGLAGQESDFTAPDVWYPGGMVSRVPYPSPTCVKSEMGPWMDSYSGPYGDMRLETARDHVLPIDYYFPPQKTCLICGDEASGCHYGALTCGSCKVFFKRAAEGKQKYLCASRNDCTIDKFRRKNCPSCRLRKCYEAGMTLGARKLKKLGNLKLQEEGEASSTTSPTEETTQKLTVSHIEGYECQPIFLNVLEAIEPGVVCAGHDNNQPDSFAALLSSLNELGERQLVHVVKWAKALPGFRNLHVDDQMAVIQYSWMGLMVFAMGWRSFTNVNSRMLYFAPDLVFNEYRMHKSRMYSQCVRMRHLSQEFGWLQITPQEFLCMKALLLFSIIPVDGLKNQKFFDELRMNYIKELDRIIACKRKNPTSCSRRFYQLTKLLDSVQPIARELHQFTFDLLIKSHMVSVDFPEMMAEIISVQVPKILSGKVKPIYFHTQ
# [2] = system: estrogen receptor-positive and estrogen receptor-negative breast cancer cell lines; details: inducing apoptosis in a concentration-dependent manner
# [3] = system: nontumorigenic mammary cells
# CB1 receptor = CB1 receptor (Homo sapiens, UniProt P21554)
# Sequence of CB1 receptor (P21554 whole entry): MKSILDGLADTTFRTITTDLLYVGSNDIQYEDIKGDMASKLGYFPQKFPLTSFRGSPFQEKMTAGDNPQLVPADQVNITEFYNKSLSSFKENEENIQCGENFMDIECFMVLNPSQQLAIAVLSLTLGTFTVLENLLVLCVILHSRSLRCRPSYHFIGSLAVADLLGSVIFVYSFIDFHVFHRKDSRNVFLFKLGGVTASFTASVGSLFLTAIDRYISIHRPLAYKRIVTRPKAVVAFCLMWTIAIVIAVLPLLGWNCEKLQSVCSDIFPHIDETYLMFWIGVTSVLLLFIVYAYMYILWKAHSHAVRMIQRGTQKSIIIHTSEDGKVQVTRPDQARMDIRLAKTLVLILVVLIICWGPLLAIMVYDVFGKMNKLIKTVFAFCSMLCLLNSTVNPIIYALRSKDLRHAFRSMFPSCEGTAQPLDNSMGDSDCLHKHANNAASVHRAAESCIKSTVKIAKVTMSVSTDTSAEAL
# [4] = not given; remark: listed apart in the source
compound,measurement,setting,value
"CCCCCc1cc(O)c2c(c1)OC(C)(C)[C@@H]1CCC(C)=C[C@@H]21 [THC, Tetrahydrocannabinol]",specific binding of dihydroxytestosterone to the androgen receptor,[1],inhibits specific binding
same,apoptosis,"prostate cell line, PC-3",causes apoptosis
same,pain sensitivity,cold-pressor test after administration,decreased pain sensitivity
same,time after administration at which pain reduction effects were felt (average),"cold-pressor test, dronabinol oral capsules 10 mg or 20 mg",180 min
same,duration of effects,compared with smoked marijuana,lasted longer than smoked marijuana
"C=C(C)[C@@H]1CCC(C)=C[C@H]1c1c(O)cc(CCCCC)cc1O [CBD, Cannabidiol]",affinity to cannabinoid receptors,cannabinoid receptors,low affinity
same,survival of breast cancer cell lines,[2],inhibited the survival
same,effect on nontumorigenic mammary cells,[3],little effect
"CCCc1cc(O)c2c(c1)OC(C)(C)[C@@H]1CCC(C)=C[C@@H]21 [THCV, Tetrahydrocannabivarin]",CB1 receptor mode of action,CB1 receptor,antagonist
vitamin E,reduction in breast cancer incidence,"[4]; pre-menopausal women with a family history of breast cancer, highest quantity of vitamin E consumed",43%
same,risk reduction of breast cancer,[4]; women without a family history of breast cancer,16%
